Experimental data as given in patent US11344510B2, “Arylcyclohexylamine derivatives and their use in the treatment of psychiatric disorders” (Gilgamesh Pharmaceuticals, Inc., priority 2019, dated 2022).
Where a name gives a salt, the structure may show the parent alone. Read-outs that look alike come from different tables or passages of the source.

What was measured:
[1] = biological target: MK-801 binding site of the N-methyl-D-aspartate receptor (NMDAR); assay: NMDAR radioligand binding with [3H]MK-801, Method A; parameters: species or system Wistar rat; settings: MK-801 site, Method A, Wistar rat brain (minus cerebellum), 5.0 nM [3H]MK-801; read-out: NMDAR Ki ± SEM
Procedure: Radioligand Binding—Method A. Affinity of the test compounds for NMDAR was determined in radioligand binding experiments with [^3H]MK-801 by Eurofins Panlabs, Inc., using methods adapted from the literature (Javitt et al. 1987; Reynolds et al. 1989) and under the conditions described in Table 12.

[2] = Oral bioavailability in rats, Method A; format: in vivo; settings: plasma, Sprague Dawley rats
Procedure: Animals. Male Sprague Dawley rats were used in these studies Animals were randomly assigned to treatment groups and were fasted overnight before oral dosing.
Drugs. The test compound was dissolved in normal saline and administered intravenously (iv) or orally (po) at a dose of 10 mg/kg (calculated based on freebase) and at a volume of 5 mL/kg body weight. The compound was tested as the racemate (indicated by “rac” nomenclature).
Sample Collection and Bioanalysis. Blood samples were collected through external jugular vein (via cannulation) at 0.083, 0.25, 0.5, 1, 2, 4, 8 and 24 h post-dose (total 8 time points/rat, 4 rats per administration route). At each time point, ˜0.2 mL of blood was withdrawn and transferred into a pre-labeled 0.5 mL of micro centrifuge tube containing 4 μL of 200 mM K2EDTA solution as anticoagulant and mixed gently by inverting the tube to facilitate mixing of anticoagulant with the blood. Blood samples were kept on ice until centrifugation. The collected blood samples were centrifuged at 4000 rpm for 10 min at 4° C. Plasma samples were separated after centrifugation, transferred into pre-labeled tubes, and stored at −70° C. until bioanalysis. For bio analysis, 50 μL aliquots of plasma study samples or calibration standards were added to pre-labeled eppendorf tubes and 10 μL of an internal standard solution (diclofenac, 5 μg/mL in 50:50 v/v methanol:water) was added. Samples were quenched with 500 μL of precipitation solution (0.1% v/v formic acid in acetonitrile) and vortexed. All the samples were centrifuged at 14,000 rpm for 10 minutes at 4° C. Following centrifugation, 5 μL of each clear supernatant was analyzed with a fit-for-purpose LC-MS/MS method, with authentic samples of the analyte used for calibration and identification.
Data Analysis. Pharmacokinetic parameters were estimated using the non-compartmental analysis tool of Phoenix® WinNonlin software (Ver 8.1). The drug concentrations of samples below the lower limit of quantitation (LLOQ) were designated as zero.

MK-801 site of NMDAR = MK-801 site of NMDAR (Rattus norvegicus, UniProt P35439); settings: read-out: NMDAR Ki ± SEM, from Ebert et al. 1997; cited from earlier work

SMILES | Ki [1] [µM] | AUC(0-t) ([2]; male, rat, 10 mg/kg iv, read-out: AUC0-last (iv) (converted)) [ng·h/mL] | half-life ([2]; male, rat, 10 mg/kg iv, read-out: t1/2 (iv)) [min] | Cmax ([2]; male, rat, 10 mg/kg po) [ng/mL] | AUC(0-t) ([2]; male, rat, 10 mg/kg po, read-out: AUC0-last (po) (converted)) [ng·h/mL] | half-life ([2]; male, rat, 10 mg/kg po, read-out: t1/2 (po)) [min] | F ([2]; 10 mg/kg) [%] | Ki (MK-801 site of NMDAR) [µM]
CNC1(c2ccccc2)CCCCC1=O (racemic) [Compound 14rac, 2-(methylamino)-2-phenylcyclohexan-1-one hydrochloride] | 0.76 |  |  |  |  |  |  | 
CNC1(c2ccccc2Cl)CCCCC1=O (racemic) [rac-ketamine, racemic ketamine, reference compound] |  | 1340 | 41.6 | 190 | 121 | 33.7 | 9 | 0.53 ± 0.078
